Measurements as given in patent US4912092A, “Methods for increasing extracellular adenosine and for stabilizing mast cells” (The Regents of the University of California, priority 1987, dated 1990).

What was measured:
[1] = target: T1, AMP deaminase (Homo sapiens, UniProt Q01433); assay: Inhibition of AMP deaminase (14C-AMP to 14C-IMP conversion); assay type: biochemical
T1 construct: endogenous in cells
T1 sequence (Q01433 1-825): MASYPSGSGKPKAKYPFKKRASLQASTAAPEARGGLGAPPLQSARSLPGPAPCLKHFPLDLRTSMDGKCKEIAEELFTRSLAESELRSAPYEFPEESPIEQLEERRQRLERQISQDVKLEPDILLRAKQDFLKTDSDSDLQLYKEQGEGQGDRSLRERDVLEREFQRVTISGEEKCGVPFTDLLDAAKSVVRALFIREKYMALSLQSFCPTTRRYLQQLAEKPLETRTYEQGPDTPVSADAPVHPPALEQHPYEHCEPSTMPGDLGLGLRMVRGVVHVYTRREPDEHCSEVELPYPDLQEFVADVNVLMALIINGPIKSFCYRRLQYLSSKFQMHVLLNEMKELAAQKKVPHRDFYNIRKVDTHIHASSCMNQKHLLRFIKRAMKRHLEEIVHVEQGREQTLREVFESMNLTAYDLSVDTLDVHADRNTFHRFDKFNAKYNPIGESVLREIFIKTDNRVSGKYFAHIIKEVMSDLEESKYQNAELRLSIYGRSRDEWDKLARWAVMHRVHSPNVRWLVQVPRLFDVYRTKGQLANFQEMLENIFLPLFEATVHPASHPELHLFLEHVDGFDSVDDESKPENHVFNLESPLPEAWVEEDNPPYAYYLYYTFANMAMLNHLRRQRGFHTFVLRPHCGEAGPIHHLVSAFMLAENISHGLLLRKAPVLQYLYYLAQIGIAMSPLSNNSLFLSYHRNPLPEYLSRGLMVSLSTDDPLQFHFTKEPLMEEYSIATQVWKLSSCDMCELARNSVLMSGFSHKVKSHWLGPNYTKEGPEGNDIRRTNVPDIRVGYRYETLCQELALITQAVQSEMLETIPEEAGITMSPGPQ
Method: The phosphorylated forms are referred to as AICA ribotide and ribavirin monophosphate, respectively. Using 200 μM of each ribotide, AMP deaminase was inhibited 38% and 54%, respectively.

[2] = system: human splenic lymphoblast cell line (WI-L2); assay: Adenosine excretion by human lymphoblasts during ATP breakdown (2-deoxyglucose); assay type: cell-based; conditions: three-hour preincubation and four-hour incubation during 2-deoxyglucose treatment (FIGS. 8, 9)
Method: (§1) The history and properties of the cell line have been described by Hershfield et al. in Science, Vol. 197, p. 1284, 1977.
(§2) Catabolism of cellular ATP stores was stimulated by adding either 2-deoxyglucose or a calcium ionophore. At various times, the amount of adenosine released by the cells into the supernatant, or the amount of nucleotides remaining in the cells, was determined by mixing 30 μl of chilled 4.4N perchloric acid with 300 μl of supernatants, or by adding 300 μl of chilled 0.4N perchloric acid to the cells collected as pellets and centrifuging the mixtures at 500×G for 10 minutes at 4° C. […] 1245, 1975. Following centrifugation at 1500×G for three minutes at 4° C., the aqueous phase is removed and frozen at -20° C. until assayed for adenosine, inosine, or for nucleotides. Adenosine was evaluated isocratically on a C-18 microBondapak reverse phase column equilibrated with 4 millimolar potassium phosphate, (pH 3.4):acetonitrile 60% in water (95:5 v/v) buffer. Adenosine elutes at 8-10 minutes, and its identity was confirmed by its sensitivity to adenosine deaminase and by spiking with adenosine standards. The extracted samples from the cell pellet were analyzed for nucleotides by high pressure liquid chromatography on a Whatman Partisil-10 (SAX) column equilibrated with 10 millimolar potassium phosphate, pH 3.78, and eluted with a linear gradient to a 0.25 molar potassium phosphate, 0.5 molar KCl, pH 3.45. […] Peaks were quantitated by comparison with high pressure liquid chromatography analysis of suitable standards.
Cells were grown to about 0.5×10^6 cells/ml (mid-log phase) in FIG. 2 and to about 1.0×10^6 cells/ml (early stationary phase) in FIGS. 7-9.

[3] = system: HPRT- neuroblastoma cells; assay: Adenosine excretion by ionophore-stimulated HPRT- neuroblastoma cells; assay type: cell-based; conditions: pretreatment
Method: as §1, §2
To induce ATP catabolism, the growth medium was replaced by medium containing micromolar amounts of the calcium ionophore A23187 and 1.0 μM deoxycoformycin.

[4] = system: Mouse bone marrow-derived mast cells; assay type: cell-based
Method: By preventing mast cell degranulation, it is possible to prevent or control a patient's allergic response. Bone marrow obtained from Balb/C mice femurs was cultured in a 1:1 mixture of Razin media and conditioned media, produced by co-culturing splenocytes from C57B1/6J and C3H mice in the presence of Concanavalin A as described by Razin et al. in the Proc. Natl. Acad. Sci. USA 28: 2559-2561, 1981. After weekly passaging and at least 15 days in tissue culture, the resulting cells were 90% pure mast cells and 95% viable as assessed by Trypan blue exclusion. Cells exposed to ribavirin in culture were washed three times prior to use in experiments. Parallel cultures of cells grown in media alone were used as controls for pharmacologically manipulated mast cells. Cell growth was assessed by counting cells at particular time points and comparing actual numbers of ribavirin-treated cells to numbers of cells grown in media alone.
β-hexosaminidase was chosen as a representative granule-associated, preformed mast cell mediator because it is easily quantitated, and its release nearly identically parallels that of histamine. Mouse bone marrow-derived mast cells were centrifuged at 200×g for 5 minutes, washed three times in Tyrode's buffer lacking divalent cations, sensitized for 30 minutes at 37° C. with anti-DNP ([…]) IgE (1 μg/10^6 cells) and challenged with either DNP-BSA antigen (175 ng/3×10^5 cells) or A23187 (10 μg/ml/3×10^5 cells) in 400 μl of complete Tyrode's buffer for 10 minutes at 37° C. Reaction mixtures were centrifuged at 200×g for 10 minutes, and supernatant and pellet β-hexosaminidase concentrations were assayed by the hydrolysis of p-nitrophenyl-β-D-glucosamide as described in Schwartz et al. in J. Immunol. […] Spontaneous β-hexosaminidase release was determined in unchallenged cells. The net % of β-hexosaminidase released is defined as follows: [formula] where [β-hex] is β-hexosaminidase and super. is supernatant. When exogenous adenosine was present in reaction mixtures, it was added simultaneously with the secretagogue.

[5] = system: granulocytes and endothelial cells; assay: Granulocyte/endothelial cell interaction, intravital microscopy of mesentery microvessels; assay type: in vivo, rat; conditions: superfusion with 20 μM, approximately 2 μM in the vessel
Method: The parameter measured was the fracture stress between the two cell types.
These studies were performed by intravital microscopy filming of granulocytes in rat mesentary microvessels. The rolling velocity of granulocytes compared to the streaming velocity of red cells was calculated before and after the administration of adenosine.

Q: How did the inhibition at 200 µM ([1]; read-out: AMP deaminase inhibited) turn out when `NC(=O)c1ncn([C@@H]2O[C@H](COP(=O)(O)O)[C@@H](O)[C@H]2O)c1N` [AICA ribotide] was run?
A: 38%

Q: `NC(=O)c1ncn([C@@H]2O[C@H](CO)[C@@H](O)[C@H]2O)n1` [ribavirin, 1-β-D-ribofuranosyl-1H-1,2,4-triazole-3-carboxamide] was tested. Which “adenosine release from lymphoblasts” value [2] did it give?
A: increased adenosine release

Q: And the “correction of the twofold lower adenosine secretion of HPRT-deficient cells” value [3]?
A: can be corrected by pretreatment

Q: What about the “mast cell mediator content and cell viability” value [4] of the same compound?
A: did not alter

Q: What about the preformed mediator release ([4]; 1 μM for six days) of the same compound?
A: inhibits mediator release significantly

Q: And the β-hexosaminidase release ([4]; 10 μM added at the time of mast cell stimulation)?
A: does not affect

Q: What about the “net β-hexosaminidase release versus controls” value ([4]; 1, 10, or 20 μM for six days, A23187 challenge (FIG. 11)) of the same compound?
A: significantly less

Q: What about the “β-hexosaminidase release versus cells cultured in media alone” value ([4]; three to seven days in 10 μM, washed, A23187 challenge (FIG. 10), p<0.05) of the same compound?
A: marked attenuation

Q: What about the “spontaneous release of β-hexosaminidase versus control cells” value ([4]; unchallenged cells) of the same compound?
A: similar

Q: Which “decrease of fracture stress between granulocytes and endothelial cells” value [5] does the source give for `Nc1ncnc2c1ncn2[C@@H]1O[C@H](CO)[C@@H](O)[C@H]1O` [Adenosine, 9-β-D-ribofuranosyladenine] here?
A: by a factor of two

Q: What about the “rolling velocity of granulocytes in microvessels” value [5] of the same compound?
A: twofold increase

Q: For `NC(=O)c1ncn([C@@H]2O[C@H](COP(=O)(O)O)[C@@H](O)[C@H]2O)n1` [ribavirin monophosphate], which AMP deaminase inhibited ([1]; 200 μM ribotide, cytoplasmic lysates from a human lymphoblast line) is on record?
A: 54%
